# Results as given in patent US9108944B2, “Androgen receptor modulators and uses thereof” (ARAGON PHARMACEUTICALS, INC., priority 2010, dated 2015).
# Assays:
# [1] = target: T1, AR-VP16 (Homo sapiens, UniProt P10275); experiment: AR-VP16 DNA Binding Assay, antagonist mode (HepG2 cells, 0.1 nM R1881); assay type: cell-based
# T1 sequence (P10275 560-920 limits assumed): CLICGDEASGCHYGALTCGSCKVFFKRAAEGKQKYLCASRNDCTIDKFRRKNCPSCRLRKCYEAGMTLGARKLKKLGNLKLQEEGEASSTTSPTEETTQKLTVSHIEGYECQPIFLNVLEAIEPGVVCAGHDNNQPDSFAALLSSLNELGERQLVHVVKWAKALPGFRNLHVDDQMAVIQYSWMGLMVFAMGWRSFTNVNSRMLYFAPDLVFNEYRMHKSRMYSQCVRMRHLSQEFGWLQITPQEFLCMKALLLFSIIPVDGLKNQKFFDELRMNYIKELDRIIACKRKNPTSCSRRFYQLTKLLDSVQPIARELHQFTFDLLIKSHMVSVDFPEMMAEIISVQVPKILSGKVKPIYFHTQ
# How it was run: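 HepG2 cells transiently transfected with AR-VP16 (Lipofectin), incubated overnight, then treated with compound in RPMI with charcoal-stripped serum. Antagonist mode adds R1881 at 0.1 nM final. Cells lysed after 48 h incubation for read-out.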
# [2] = target: T1, AR-VP16; experiment: AR-VP16 DNA Binding Assay, agonist mode (HepG2 cells); assay type: cell-based; details: Emax >20x DMSO control = agonist
Structure (SMILES),IC50 [1] [µM],ARVP16 DNA Binding Assay (Agonist mode): Agonist? [2]
"N#Cc1ncc(N2C(=O)C3(CCC3)N(c3ccc(OCCN4CCSCC4)c(F)c3)C2=S)cc1C(F)(F)F [Compound 175, 5-(5-(3-Fluoro-4-(2-thiomorpholinoethoxy)phenyl)-8-oxo-6-thioxo-5,7-diazaspiro[3.4]octan-7-yl)-3-(trifluoromethyl)picolinonitrile]",< 1,No (Agonist defined as a compound whose Emax in the ARVP16 DNA Binding Assay (Agonist mode) is >20x DMSO control)
"CN1CCN(CCOc2ccc(N3C(=S)N(c4cnc(C#N)c(C(F)(F)F)c4)C(=O)C34CCC4)cc2)CC1 [Compound 178, 5-(5-(4-(2-(4-Methylpiperazin-1-yl)ethoxy)phenyl)-8-oxo-6-thioxo-5,7-diazaspiro[3.4]octan-7-yl)-3-(trifluoromethyl)picolinonitrile]",< 1,No (Agonist defined as a compound whose Emax in the ARVP16 DNA Binding Assay (Agonist mode) is >20x DMSO control)
"N#Cc1ncc(N2C(=O)C3(CCC3)N(c3ccc(OCCC4CCOCC4)c(F)c3)C2=S)cc1C(F)(F)F [Compound 180, 5-(5-(3-Fluoro-4-(2-(tetrahydro-2H-pyran-4-yl)ethoxy)phenyl)-8-oxo-6-thioxo-5,7-diazaspiro[3.4]octan-7-yl)-3-(trifluoromethyl)picolinonitrile]",< 1,Yes (Agonist defined as a compound whose Emax in the ARVP16 DNA Binding Assay (Agonist mode) is >20x DMSO control)
"CN1CCN(CCCOc2ccc(N3C(=S)N(c4cnc(C#N)c(C(F)(F)F)c4)C(=O)C34CCC4)c(F)c2)CC1 [Compound 184, 5-(5-(2-Fluoro-4-(3-(4-methylpiperazin-1-yl)propoxy)phenyl)-8-oxo-6-thioxo-5,7-diazaspiro[3.4]octan-7-yl)-3-(trifluoromethyl)picolinonitrile]",< 1,Yes (Agonist defined as a compound whose Emax in the ARVP16 DNA Binding Assay (Agonist mode) is >20x DMSO control)
"N#Cc1ncc(N2C(=O)C3(CCC3)N(c3ccc(OCCN4CCS(=O)(=O)CC4)c(F)c3)C2=S)cc1C(F)(F)F [Compound 186, 5-(5-(4-(2-(1,1-Dioxidothiomorpholino)ethoxy)-3-fluorophenyl)-8-oxo-6-thioxo-5,7-diazaspiro[3.4]octan-7-yl)-3-(trifluoromethyl)picolinonitrile]",< 1,Yes (Agonist defined as a compound whose Emax in the ARVP16 DNA Binding Assay (Agonist mode) is >20x DMSO control)
"N#Cc1ncc(N2C(=O)C3(CCC3)N(c3ccc(OCCN4CCCCC4)cc3F)C2=S)cc1C(F)(F)F [Compound 187, 5-(5-(2-Fluoro-4-(2-(piperidin-1-yl)ethoxy)phenyl)-8-oxo-6-thioxo-5,7-diazaspiro[3.4]octan-7-yl)-3-(trifluoromethyl)picolinonitrile]",< 1,No (Agonist defined as a compound whose Emax in the ARVP16 DNA Binding Assay (Agonist mode) is >20x DMSO control)
"N#Cc1ncc(N2C(=O)C3(CCC3)N(c3ccc(OCCc4ccccc4)c(F)c3)C2=S)cc1C(F)(F)F [Compound 188, 5-(5-(3-Fluoro-4-phenethoxyphenyl)-8-oxo-6-thioxo-5,7-diazaspiro[3.4]octan-7-yl)-3-(trifluoromethyl)picolinonitrile]",< 1,No (Agonist defined as a compound whose Emax in the ARVP16 DNA Binding Assay (Agonist mode) is >20x DMSO control)
"N#Cc1ncc(N2C(=O)C3(CCC3)N(c3ccc(OCCc4ncccn4)c(F)c3)C2=S)cc1C(F)(F)F [Compound 189, 5-(5-(3-Fluoro-4-(2-(pyrimidin-2-yl)ethoxy)phenyl)-8-oxo-6-thioxo-5,7-diazaspiro[3.4]octan-7-yl)-3-(trifluoromethyl)picolinonitrile]",< 1,No (Agonist defined as a compound whose Emax in the ARVP16 DNA Binding Assay (Agonist mode) is >20x DMSO control)
"CN1CCC(Oc2ccc(N3C(=S)N(c4cnc(C#N)c(C(F)(F)F)c4)C(=O)C34CCC4)c(F)c2)CC1 [Compound 190, 5-(5-(2-Fluoro-4-((1-methylpiperidin-4-yl)oxy)phenyl)-8-oxo-6-thioxo-5,7-diazaspiro[3.4]octan-7-yl)-3-(trifluoromethyl)picolinonitrile]",< 1,No (Agonist defined as a compound whose Emax in the ARVP16 DNA Binding Assay (Agonist mode) is >20x DMSO control)
"Cc1cc(N2C(=O)C3(CCC3)N(c3ccc(OC4CCN(C)CC4)cc3)C2=S)cnc1C#N [Compound 191, 3-Methyl-5-(5-(4-((1-methylpiperidin-4-yl)oxy)phenyl)-8-oxo-6-thioxo-5,7-diazaspiro[3.4]octan-7-yl)picolinonitrile]",> 1,No (Agonist defined as a compound whose Emax in the ARVP16 DNA Binding Assay (Agonist mode) is >20x DMSO control)
"Cc1cc(N2C(=O)C3(CCC3)N(c3ccc(OC4CCN(C)CC4)c(F)c3)C2=S)cnc1C#N [Compound 192, 5-(5-(3-Fluoro-4-((1-methylpiperidin-4-yl)oxy)phenyl)-8-oxo-6-thioxo-5,7-diazaspiro[3.4]octan-7-yl)-3-methylpicolinonitrile]",> 1,No (Agonist defined as a compound whose Emax in the ARVP16 DNA Binding Assay (Agonist mode) is >20x DMSO control)
"Cc1cc(N2C(=O)C3(CCC3)N(c3ccc(OC4CCSCC4)cc3)C2=S)cnc1C#N [Compound 195, 3-Methyl-5-(8-oxo-5-(4-((tetrahydro-2H-thiopyran-4-yl)oxy)phenyl)-6-thioxo-5,7-diazaspiro[3.4]octan-7-yl)picolinonitrile]",< 1,No (Agonist defined as a compound whose Emax in the ARVP16 DNA Binding Assay (Agonist mode) is >20x DMSO control)
"Cc1cc(N2C(=O)C(C)(C)N(c3ccc(OC4CCN(C)CC4)cc3)C2=S)cnc1C#N [Compound 197, 5-(4,4-Dimethyl-3-(4-((1-methylpiperidin-4-yl)oxy)phenyl)-5-oxo-2-thioxoimidazolidin-1-yl)-3-methylpicolinonitrile]",> 1,No (Agonist defined as a compound whose Emax in the ARVP16 DNA Binding Assay (Agonist mode) is >20x DMSO control)
"N#Cc1ncc(N2C(=O)C3(CCC3)N(c3ccc(OC4CCOCC4)cc3)C2=S)cc1C(F)(F)F [Compound 198, 5-(8-Oxo-5-(4-((tetrahydro-2H-pyran-4-yl)oxy)phenyl)-6-thioxo-5,7-diazaspiro[3.4]octan-7-yl)-3-(trifluoromethyl)picolinonitrile]",< 1,No (Agonist defined as a compound whose Emax in the ARVP16 DNA Binding Assay (Agonist mode) is >20x DMSO control)
"Cc1cc(N2C(=O)C3(CCC3)N(c3ccc(OCCN4CCN(C)CC4)cc3)C2=S)cnc1C#N [Compound 200, 3-Methyl-5-(5-(4-(2-(4-methylpiperazin-1-yl)ethoxy)phenyl)-8-oxo-6-thioxo-5,7-diazaspiro[3.4]octan-7-yl)picolinonitrile]",< 1,Yes (Agonist defined as a compound whose Emax in the ARVP16 DNA Binding Assay (Agonist mode) is >20x DMSO control)
"Cc1cc(N2C(=O)C3(CCC3)N(c3ccc(OC4CCS(=O)(=O)CC4)cc3)C2=S)cnc1C#N [Compound 201, 5-(5-(4-((1,1-Dioxidotetrahydro-2H-thiopyran-4-yl)oxy)phenyl)-8-oxo-6-thioxo-5,7-diazaspiro[3.4]octan-7-yl)-3-methylpicolinonitrile]",< 1,No (Agonist defined as a compound whose Emax in the ARVP16 DNA Binding Assay (Agonist mode) is >20x DMSO control)
"COc1ccc(N2C(=S)N(c3cnc(C#N)c(C(F)(F)F)c3)C(=O)C23CCC3)cc1F [Compound 203, 5-(5-(3-Fluoro-4-methoxyphenyl)-8-oxo-6-thioxo-5,7-diazaspiro[3.4]octan-7-yl)-3-(trifluoromethyl)picolinonitrile]",< 1,No (Agonist defined as a compound whose Emax in the ARVP16 DNA Binding Assay (Agonist mode) is >20x DMSO control)
"COc1ccc(N2C(=S)N(c3cnc(C#N)c(C)c3)C(=O)C23CCC3)cc1 [Compound 205, 5-(5-(4-Methoxyphenyl)-8-oxo-6-thioxo-5,7-diazaspiro[3.4]octan-7-yl)-3-methylpicolinonitrile]",< 1,No (Agonist defined as a compound whose Emax in the ARVP16 DNA Binding Assay (Agonist mode) is >20x DMSO control)
"N#Cc1ncc(N2C(=O)C3(CCC3)N(c3ccc(Oc4cnccn4)cc3)C2=S)cc1C(F)(F)F [Compound 207, 5-(8-Oxo-5-(4-(pyrazin-2-yloxy)phenyl)-6-thioxo-5,7-diazaspiro[3.4]octan-7-yl)-3-(trifluoromethyl)picolinonitrile]",< 1,No (Agonist defined as a compound whose Emax in the ARVP16 DNA Binding Assay (Agonist mode) is >20x DMSO control)
"Cc1cc(N2C(=O)C3(CCC3)N(c3ccc(OC4CCNCC4)cc3)C2=S)cnc1C#N [Compound 210, 3-Methyl-5-(8-oxo-5-(4-(piperidin-4-yloxy)phenyl)-6-thioxo-5,7-diazaspiro[3.4]octan-7-yl)picolinonitrile]",> 1,No (Agonist defined as a compound whose Emax in the ARVP16 DNA Binding Assay (Agonist mode) is >20x DMSO control)
